The text below walks through data of US5507949A, “Supported liquid membrane and separation process employing same” (Monsanto Company, priority 1993, dated 1996).

Read-outs that look alike come from different tables or passages of the source.

Series [1] is described as follows: Partition coefficient between polyalkylene glycol (PPG) and water. From the text: *Kp = Acid concentration in PPG .div. Acid Concentration in H2 O at […]
A short description of series [2]: Stability/integrity of supported liquid membrane. In kind it is physicochemical. From the text: (§1) A flat sheet microporous polypropylene membrane (Celgard 2400, 38% porosity, 0.05 micron average pore size, 25 micron thick) was wet with polypropylene glycol (PPG) MW 4000 obtained from the Dow Chemical Company by putting a few drops of PPG on the membrane sheet and spreading it out. […] The excess PPG was wiped off and the membrane with immobilized PPG was ready for use. […] The same wetting procedure can be used for hollow fiber membranes. In a module form, the fibers can be wet by pumping PPG slowly through the lumens of the fibers. The excess PPG left in the fibers can thereafter be removed by either blowing air or passing water through the tube side of the fibers.
The process of Example 2 was repeated but with octanol, a typical organic solvent with high affinity for p-nitrophenol, as the liquid membrane.

The conditions of series [3]: 65° C. (Example 26). The protocol:
Celgard 2500 (flat sheet microporous polypropylene membrane) was wetted with PPG-4000 and sandwiched between two compartments of a membrane cell as described in Example 2. One compartment was filled with a aqueous solution containing 5000 mg/L butanol. Air was swept in the other compartment to remove butanol diffusing through the membrane, thus creating driving force for further transport. The system was operated at 65° C.

Description in series [4]: as §1
A flat sheet immobilized liquid membrane prepared according to Example 1 was placed between the two compartments of a cell. Surface area of the membrane was 8 cm^2. One cell compartment contained an aqueous waste solution containing para-nitrophenol (PNP) at a concentration of 4000 to 5000 mg/L and 20 wt % KCl. The other compartment contained 0.1N NaOH as an aqueous strip solution. Both solutions were circulated by pumps. Total volume of liquid on each side of the membrane was 100 ml. The system was at room temperature. PNP levels in both compartments were measured periodically using a spectrophotometric method.
The source holds these as a separate data set.

A short description of series [5]: Transport across hollow fiber supported liquid membrane (Examples 5 and 6). Format: physicochemical. The conditions noted are these: Celgard X20 400 hollow fibers; after 3 hours (Example 5). From the text:
Celgard X20 400 hollow fibers (40% porosity, 0.065 micron pore size, internal diameter 400 microns, outer diameter 460 microns) were potted into a module containing 54 fibers that were 18 cm long. The total membrane area was 120 cm^2. PPG MW 4000 was pumped through the lumens of the fibers to wet them. Water was then pumped through to remove excess PPG. The module having PPG immobilized in the fiber walls was then used to remove PNP from an aqueous solution containing approximately 4000 to 5000 mg/L PNP and 20 wt % KCl. The aqueous stripping solution was 0.1N NaOH. The set up was similar to that used in Example 2. The initial rate of PNP transport across the hollow fiber membrane was about 4 mg/hr-cm^2 membrane area. After 3 hours of operation PNP concentration in the stripping side went up to 4400 mg/L and that in the feed side dropped to 45 mg/L.
Using a procedure similar to that of Example 5 but using polysulfone hollow fibers (Permea, St. Louis) as the membrane support, selective extraction of PNP from an aqueous waste solution was examined. Ultrafiltration polysulfone hollow fibers (18 cm long, MW cutoff 160,000, OD 1150 microns, ID 870 microns) were potted into a module containing 10 fibers that were 17.6 cm long. The effective membrane area was about 48 cm^2. The initial rate of transport was about 1 mg PNP/hr-cm^2 membrane area.

For series [6] the following is noted: known octanol/water system; cited from earlier work.
Setting [7] is: PPG MW about 4000 in CELGARD 2400, 20 wt % NaCl.
Setting [8] is: PPG in Celgard 2400, strip 0.1N NaOH, room temperature (Table 3).
Where [9] appears, read: 30 wt. % Pluronic L-81 in PPG-4000 (Example 23).
Where [10] appears, read: overnight, feed pH 5.4, 20 wt. % KCl (Example 29).
Setting [11] is: Celgard 2402, overnight (Example 4).
Setting [12] is: Celgard 2500, overnight (Example 3).
[13] abbreviates: 5 wt % acid, 20 wt % KCl, strip 0.1N NaOH, room temperature (Table 1).

`CCCCC(=O)O` [Valeric Acid (C5), Valeric Acid] returned a Permeability (not told) of 160 ×10⁻⁶ cm/s. For the same compound, in series [1], the “Partition Coeff. (Kp)” value was found to be 24.6.

Turning to `[Cl-].[Na+]` [NaCl], in series [2] (setting [7]), the “salt passage through liquid membrane” value is “essentially no salt to pass through”.

As for `CCCCO` [butanol], in series [3] (PPG-4000 in Celgard 2500, air sweep), the “initial rate of butanol removal” value is “about 7 mg/hr-cm^2”. The “butanol concentration in the aqueous solution” value in series [3] (after about 5 hr, initial 5000 mg/L) is reported as “about 400 mg/L”.

Under setting [8], `O=CO` [Formic Acid (C1), Formic Acid] yielded a Permeability of 5.5 ×10⁻⁶ cm/s. Further, the Rate by setting is: (pH 1.6) 1.0; (pH 5) 0.026. Also, in series [1] (acid concentration in PPG ÷ acid concentration in H2O at equilibrium), the “Partition Coeff. (Kp)” value is 0.45. Also, the “Initial Rate” value in series [4] came out at 1.0 mg/hr-cm^2.

Regarding `O` [water], the “water movement (diffusion) through liquid membrane” value in series [2] (setting [7]) was “very little water movement”.

Take `Oc1ccccc1` [Phenol]: the “K PPG-4000/Water” value in series [1] is reported as 150. Further, in series [4], the “concentration in the feed” value is “about 5 mg/L” and the “concentration in the stripping solution” value is reported as “about 5050 mg/L”.

With `N#C/C=C/C#N` [fumaronitrile], the “initial rate of fumaronitrile transport” value in series [4] was “about 0.5 mg/hr-cm^2”.

Take `Nc1ccc([N+](=O)[O-])cc1` [p-nitroaniline]: the “initial rate of PNA transport” value in series [4] (feed pH 9, ~500 mg/L, strip 0.1N nitric acid (Example 8)) is “about 1.5 mg/hr-cm^2”. Further, in series [4] (overnight (Example 8)), the “PNA level in the feed” value amounted to 70 mg/L and the “PNA level in the stripping solution” value came out at 450 mg/L.

Turning to `CCCCCCCCO` [octanol, reference compound], in series [2] (octanol liquid membrane in operation (Example 25)), the “time to breakdown of immobilized liquid membrane” value is reported as “about 10 minutes”.

As for `O=C1C=CC(=O)N1` [maleimide], the “change of initial rate of maleimide transport vs Example 22” value in series [4] (setting [9]) is “more than doubled”. Moreover, the “initial rate of maleimide transport” value in series [4] (setting [9]) was 2.5 mg/hr-cm^2; in series [4] (PPG-4000, 7,000 mg/L maleimide, 40 wt. % ammonium sulfate (Example 22)), “about 1.2 mg/hr-cm^2”.

As to `O=C(O)c1ccccc1` [benzoic acid], the “benzoic acid passage through membrane” value in series [4] (feed pH 5.4 (Example 29)) is on record as “virtually blocked by the membrane”. In addition, the “remaining in feed / transported” value in series [4] (overnight, feed pH 2.5 (Example 30)) is given as “virtually gone from the feed”. The “benzoic acid detected in aqueous strip solution” value in series [4] (setting [10]) is < 1 % of feed. Further, the “benzoic acid level in strip solution” value in series [4] (overnight, from hydrolysis of ethyl benzoate (Example 33)) is on record as “about 420 mg/L”.

Consider `CCCCCC(=O)O` [Caproic Acid (C6), Caproic Acid], for which the Permeability under setting [8] was found to be 400 ×10⁻⁶ cm/s. Also, the “Partition Coeff. (Kp)” value in series [1] was 83. Moreover, the “initial rate of caproic acid transport relative to PPG membrane” value in series [4] (carbamate-functional liquid membrane drawing 12 (Example 2d)) is “about the same as with PPF-4000”. The “caproic acid level in waste solution” value in series [4] (carbamate-functional liquid membrane drawing 12, after 23 hours, initial 1800 ppm (Example 2d)) stood at 13 ppm.

In the case of `CCOC(=O)c1ccccc1` [ethyl benzoate], the “permeability of ethyl benzoate through the membrane” value in series [4] (PPG membrane, feed pH 7.1, strip 0.1N NaOH, 23° C. (Example 33)) was “about 9×10^-4 cm/sec”. Also, in series [4] (overnight, initial 500 mg/L (Example 33)), the “ethyl benzoate concentration in the feed side” value amounted to 1 mg/L.

For `O=[N+]([O-])c1ccc(O)cc1` [PNP, para-nitrophenol], the “K PPG-4000/Water” value in series [1] is recorded as 300. The “PNP concentration in feed side” value in series [4] (setting [11]) turned out to be 10 mg/L; in series [4] (setting [12]), 5 mg/L; in series [5], 45 mg/L. Moreover, the results for the “PNP concentration in stripping side” value in series [4] (setting [11]), in series [4] (setting [12]) and in series [5] were 4900 mg/L, 4430 mg/L and 4400 mg/L, respectively. Also, the “separation factor for PNP over KCl” value in series [4] (Example 2) is “at least 2000”. Also, the “PNP concentration difference caustic side vs waste side” value in series [4] (Example 2, overnight) is reported as “over 1000 times”. For the same compound, in series [4] (Example 2, overnight), the “PNP concentration in caustic side” value is reported as “about 3800 mg/L”. The “PNP concentration in waste side” value in series [4] (Example 2, overnight, initial 4000 to 5000 mg/L) is recorded as “about 3 mg/L”. For the same compound, the “PNP level in waste solution” value in series [4] (Igepal CO-210 liquid membrane, after 24 hours, initial 4397 ppm (Example 2f)) is 10 ppm; in series [4] (carbamate-functional liquid membrane drawing 12, after 5.5 hours, initial 4300 ppm (Example 2c)), 25 ppm; in series [4] (carbamate-functional liquid membrane drawing 12, overnight (Example 2c)), 5 ppm; in series [4] (castor oil liquid membrane, after 96 hours, initial 4272 ppm (Example 2e)), 4 ppm; in series [4] (strip 50 wt. % PEG-200, after about 9 hours, initial 4449 ppm (Example 2b)), 192 ppm; in series [4] (strip PEG-200, after about 8 hours, initial 4700 ppm (Example 2a)), 12 ppm. Besides, the “PNP level in waste solution” value in series [4] (strip PEG-200, after two days, initial 4700 ppm (Example 2a)) is given as 0.6 ppm. The “ratio of PNP concentration caustic side over waste side” value in series [4] (PBG MW 2000, overnight (Example 20)) is listed as “about 1300”. Also, the “PNP removal from the feed solution” value in series [4] (setting [10]) was “about 99%”. In addition, in series [4] (polybutylene glycol MW approximately 5000, overnight (Example 21)), the “PNP ratio (concentration of strip side to feed side)” value came to 120.

For the setting “not told”, `CCC(=O)O` [Propionic Acid (C3), Propionic Acid] came in with a Permeability of 33 ×10⁻⁶ cm/s. The “Initial Rate” value in series [4] (setting [13]) is listed as 5.4 mg/hr-cm^2.

Consider `C=CC(=O)O` [Acrylic Acid], for which the “K Octanol/Water” value in series [6] is 1.35. Also, the “K PPG-4000/Water” value in series [1] amounted to 5.

Compound `CCCC(=O)O` [Butyric Acid (C4), Butyric Acid] registered a Permeability (not told) of 42 ×10⁻⁶ cm/s.

For the compound `N.N.O=S(=O)(O)O` [ammonium sulfate], the “ammonium sulfate detected in the stripping solution” value in series [4] is recorded as “no ammonium sulfate was detected”.

Regarding `CC(=O)O` [Acetic Acid (C2), Acetic Acid], in series [4] (setting [13]), the “Initial Rate” value amounted to 1.6 mg/hr-cm^2.

For the compound `[Cl-].[K+]` [KCl], the “chloride concentration on waste side” value in series [4] (Example 2) is on record as “over 100 g/L”. In addition, the “chloride content in caustic strip solution” value in series [4] (Example 2, overnight, measure of KCl transport) is on record as 0.049 g/L.
